How the values were obtained:
mOat1 = biological target: T1, mOat1 (Mus musculus, UniProt Q8VC69); test: Two-point inhibition of mOat1-mediated PAH uptake in transfected HEK293 cells; assay type: in vitro ADME; conditions: PAH 10 μM, 1 min
T1 construct: expressed in transfected cells; host or cells: HEK293
T1 sequence (Q8VC69 1-545): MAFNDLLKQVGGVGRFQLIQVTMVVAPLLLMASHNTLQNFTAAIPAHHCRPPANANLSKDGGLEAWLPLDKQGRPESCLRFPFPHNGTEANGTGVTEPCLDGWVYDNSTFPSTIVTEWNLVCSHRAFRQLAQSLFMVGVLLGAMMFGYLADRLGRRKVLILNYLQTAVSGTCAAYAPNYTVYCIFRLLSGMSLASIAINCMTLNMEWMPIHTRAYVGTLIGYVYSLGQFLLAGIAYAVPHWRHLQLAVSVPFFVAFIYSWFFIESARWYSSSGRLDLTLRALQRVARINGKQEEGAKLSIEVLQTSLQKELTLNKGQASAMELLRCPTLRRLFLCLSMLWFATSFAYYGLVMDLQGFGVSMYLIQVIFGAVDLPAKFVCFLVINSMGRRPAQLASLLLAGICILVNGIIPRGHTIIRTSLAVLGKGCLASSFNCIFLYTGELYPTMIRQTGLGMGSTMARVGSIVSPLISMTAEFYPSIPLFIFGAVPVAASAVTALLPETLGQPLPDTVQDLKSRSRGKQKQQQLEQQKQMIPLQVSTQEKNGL
Protocol: Well-characterized mOct1-, mOct2-, mOat1-, mOat2-, mOat3-, mMate1-, hOAT1-, hOAT3-, hOAT4-, hMRP2-, mMdr1a- and mMdr1b-transfected HEK293 cells and the respective vector-transfected control HEK293 cells were used.[42],[51],[52] All HEK293 cells (transporter-transfected and vector-transfected) were cultured in DMEM (Sigma, high glucose, 10% FBS, 1% penicillin (10,000 Units/mL)/streptomycin (10 mg/mL)) at 37°C under 5% CO2 in humidified atmosphere. The cells were routinely checked for the absence of mycoplasma infection. For the preparation of HEK293 cell monolayers, 24-well plates were pretreated with a poly-D-lysine hydrobromide solution (0.1 mg/mL). Each well was coated with 0.5 mL of poly-D-lysine solution and incubated for at least 15 min. After complete removal of the solution, the plates were dried for 30 min. Cells (vector-transfected and transporter-transfected) treated with trypsin were immediately seeded into 24-well plates and cultured for 3 days before being used for transport experiments.
For the uptake assay, the growth medium was aspirated, and each well was rinsed three times with 0.5 mL of incubation buffer (HBSS supplemented with 20 mM HEPES, pH 7.4) and incubated for 20 min at 37 °C. Afterward, buffers were removed, and 200 μL of the incubation buffer containing a radiolabeled substrate and the nonlabeled CHD and CDCHD or reference inhibitor (Table S1), respectively, was added to each well and incubated at 37 °C for designated time intervals. […] Cells were solubilized with 0.6 mL of 1N NaOH overnight and transferred into scintillation vials. ^3H and ^14C contents were measured after the addition of 2.5 mL of scintillator in a liquid scintillation counter.
The cellular protein amount was determined in parallel for each cell line (vector- and transporter-transfected) from six wells in a different 24-well reference plate using the Bradford method. […]
The inhibitory effect (I(%)) was calculated according to the formula: [drawing 5] […]

[1] = set-up: method as in PMID 339024; conditions: phase II clinical trial, 1970s; cited from earlier work

## CC(=O)C1=C(O)[C@@H](N)[C@H]2Cc3c(c(O)c4c(O)c(C)ccc4c3C)C(=O)[C@@]2(O)C1=O [CHD, chelocardin]
mOat1; 1 and 10 μM tested
  inhibitory effect on mOat1: less than 50%
mOat1; 1 and 10 μM
  inhibitory effect on mOat1 (in words): concentration-dependent inhibitory effects
mOat1; HEK293, at 10 μM, read-out: inhibitory effect on mOat1
  inhibition at 10 µM: ~50%
[1]
  concentrations in urine: 11000 to 14000 ng/mL
  plasma concentrations: 1000 to 3000 ng/mL

— PMC11249637, “Interaction of the Atypical Tetracyclines Chelocardin and Amidochelocardin with Renal Drug Transporters” (ACS Pharmacology & Translational Science, 2024)
